Data reported in US11149046B2, “Antibacterial sideromycins” (Hsiri Therapeutics, Inc., priority 2014, dated 2021).
Converted amounts (≈) assume the structure as drawn. “And” between values parts separate entries of the source, which are not always exact repeats. Identical values can stand only once. “Also recorded” adds a separate entry of the source. Like-named read-outs stand apart in the source and are kept apart here.

Columns and labels:
[1] = system: P. aeruginosa KW799/wt; assay: MIC determination; assay type: cell-based, Pseudomonas aeruginosa; conditions: for MIC: Pseudomonas aeruginosa, KW799/WT
Source text: (§1) Table 3 that was included in the first Example 4 section provides antibacterial data for the first synthetic sideromycins we prepared and studied. The second Example 4 section elaborated and expanded on that data with inclusion of representative antibacterial data in the text and associated pictures of Petri dish assays. MIC (minimum inhibition concentration) is given in μM and AD (agar diffusion zones of inhibition are given in mm from Kirby-Bauer Petri dish growth inhibition studies).

[2] = system: P. aeruginosa KW799/61 (permeability mutant); assay: microbe, parasite or virus in culture; assay type: cell-based, Pseudomonas aeruginosa
Source text: (§2) MIC (minimum inhibition concentration) is given in μM and AD (agar diffusion zones of inhibition are given in mm from Kirby-Bauer Petri dish growth inhibition studies).

[3] = system: A. baumannii ATCC 17961; assay: MIC determination; assay type: cell-based, Acinetobacter baumannii
Source text: as §1

[4] = system: E. coli DC0; assay: MIC determination; assay type: cell-based; conditions: for MIC: Escherichia coli
Source text: as §1

[5] = system: E. coli DC2 (permeability mutant); assay: MIC determination; assay type: cell-based
Source text: as §1

[6] = system: M. vaccae IMET-10760; assay: MIC determination; assay type: cell-based; conditions: iron deficient media
[7] = system: M. luteus ATCC-10240; assay: MIC determination; assay type: cell-based; conditions: iron deficient media
[8] = system: B. subtilis ATCC-6633; assay: MIC determination; assay type: cell-based; conditions: iron deficient media
[9] = system: S. aureus SG511; assay: MIC determination; assay type: cell-based; conditions: iron deficient media
[10] = system: Pa4; assay: MIC determination; assay type: cell-based, Pseudomonas aeruginosa; conditions: Pseudomonas aeruginosa; Table 5
Source text: as §1

[11] = system: Pa6; assay: MIC determination; assay type: cell-based, Pseudomonas aeruginosa; conditions: Pseudomonas aeruginosa; Table 5; read-out: MIC
Source text: as §2

[12] = system: Pa-Da-1304 CF patient isolate; assay: MIC determination; assay type: cell-based, Pseudomonas aeruginosa; conditions: Pseudomonas aeruginosa
Source text: as §2
We obtained a clinical isolate of Pseudomonas from a cystic fibrosis patient.

[13] = system: Pseudomonas aeruginosa 01 (Pa01); assay: MIC determination; assay type: cell-based; conditions: Pseudomonas aeruginosa
Source text: as §1

[14] = system: E. coli DC0; assay: Agar diffusion (Kirby-Bauer) assay; assay type: cell-based; conditions: Table 5
Source text: as §1

[15] = system: E. coli DC2; assay: Agar diffusion (Kirby-Bauer) assay; assay type: cell-based; conditions: Table 5
Source text: as §1

[16] = system: Pseudomonas aeruginosa KW799/wt; assay: Agar diffusion (Kirby-Bauer) assay; assay type: cell-based; conditions: wild type Pseudomonas; FIG. 8, 9, 12; listed as YML-1-18
Source text: as §1

[17] = system: Acinetobacter baumannii ATCC 17961; assay: Agar diffusion (Kirby-Bauer) assay, with and without hydrogel; assay type: cell-based; conditions: Acinetobacter; FIG. 8, 9, 10
Source text: as §1
We investigated whether the sideromycin absorbed in the gel be able to diffuse out of the gel and into the agar to effect antibacterial growth. As a control, the sideromycin alone, without gel, was added in a separate 9 mm well, as usual.
The second question was whether the sideromycin continue to be released and be able to effect bacterial growth inhibition over extended periods. Thus, additional identical agar plates were prepared and stored at 4° C. for 24, 48 and 72 hours to allow diffusion of the sideromycin (control and gel forms) into the agar before allowing the bacteria to grow in an incubator. Then after each time period, the Petri dishes were incubated at 37° C. for 20 hours to promote bacteria growth in the agar. […] The study has been extended to as long as 168 hours (one week) with retention of antibiotic effectiveness.

[18] = system: A. baumannii ARC 3486; assay: MIC determination; assay type: cell-based; conditions: Acinetobacter baumannii, ARC3486; Table 2; read-out: in vitro activity (MIC)
[19] = system: A. baumannii ISR 14-0061; assay: MIC determination; assay type: cell-based; conditions: Acinetobacter baumannii, ISR140061; Table 2; read-out: in vitro activity (MIC)
[20] = system: Burkholderia multivorans AU0100; assay: MIC determination; assay type: cell-based; conditions: Table 2, read-out: in vitro activity (MIC)
[21] = system: S. Aureus ISR 14-001; assay: MIC determination; assay type: cell-based; conditions: Staphylococcus aureus; Table 2; read-out: in vitro activity (MIC)
[22] = system: S. Aureus ISR-002; assay: MIC determination; assay type: cell-based; conditions: Staphylococcus aureus; Table 2; read-out: in vitro activity (MIC)
[23] = system: P. aeruginosa Pa6; assay: Agar diffusion assay; assay type: cell-based, Pseudomonas aeruginosa; conditions: M-HII media, 0.5 mM (ciprofloxacin 5 μg/ml), 50 uL per well, 37° C. 20 hrs, P unclear, V very unclear zone
Procedure: (§3) Antibiotic activity was determined using agar diffusion assays against representative Gram-negative bacteria, including Pseudomonas aeruginosa (Pa6), and several multidrug resistant forms of Acinetobacter baumannii. Representative results are shown in Table 1 and a corresponding picture of an actual petri dish showing the agar diffusion results (FIG. 4). […]. [table]

[24] = system: A. baumannii BAA 1710; assay: Agar diffusion assay; assay type: cell-based, Acinetobacter baumannii; conditions: M-HII media, 0.5 mM (ciprofloxacin 5 μg/ml), 50 uL per well, 37° C. 20 hrs, P unclear zone
Procedure: as §3

[25] = system: A. baumannii BAA 1793; assay: Agar diffusion assay; assay type: cell-based, Acinetobacter baumannii; conditions: M-HII media, 0.5 mM (ciprofloxacin 5 μg/ml), 50 uL per well, 37° C. 20 hrs, P unclear zone
Procedure: as §3

[26] = system: A. baumannii BAA 1797; assay: Agar diffusion assay; assay type: cell-based, Acinetobacter baumannii; conditions: M-HII media, 0.5 mM (ciprofloxacin 5 μg/ml), 50 uL per well, 37° C. 20 hrs, P unclear zone
Procedure: as §3

[27] = system: A. baumannii BAA 1800; assay: Agar diffusion assay; assay type: cell-based, Acinetobacter baumannii; conditions: M-HII media, 0.5 mM (ciprofloxacin 5 μg/ml), 50 uL per well, 37° C. 20 hrs
Procedure: as §3

[28] = system: strains of Pseudomonas and Acinetobacter; assay: Antibacterial activity, general statements; assay type: cell-based; conditions: general statements of the text
Procedure: Antibiotic activity was determined using agar diffusion assays against representative Gram-negative bacteria, including Pseudomonas aeruginosa (Pa6), and several multidrug resistant forms of Acinetobacter baumannii. Representative results are shown in Table 1 and a corresponding picture of an actual petri dish showing the agar diffusion results (FIG. 4). […].

[29] = system: Acinetobacter baumannii ATCC 17961; assay: In vivo activity against Acinetobacter baumannii in mice (FIG. 7); conditions: 50 mg/kg IV at 30 min and 24 hr post inoculation; IP 10^8 A. baumannii ATCC 17961; female ICR mice
Procedure: Y-axis is percent surviving; x-axis is days after inoculation. Note: 5/5 Vehicle and 5/5 daptomycin treated mice were all dead at Day 1; […] female ICR mice; IP inoculation with 10^8 Acinetobacter baumannii ATCC 17961; Treatment administered IV at 30 min and 24 hr post inoculation; Treatments—Ciprofloxacin 50 mg/kg, HT-10100 mg/kg, HT-10 50 mg/kg, HT-10 25 mg/kg, HT-10 10 mg/kg, HT-10 5 mg/kg, daptomycin 50 mg/kg, Vehicle.

[30] = system: multi-drug resistant Acinetobacter; assay: Dose dependent agar diffusion (FIG. 5); assay type: cell-based
Source text: Note Daptomycin is not active (arrow),

[31] = iron deficient media, read-out: MIC in Fe(−)MHII Media
[32] = Acinetobacter baumannii, ATCC17961, Table 2, read-out: in vitro activity (MIC)
[33] = Table 2, read-out: in vitro activity (MIC)

CC(=O)Oc1cccc(C(=O)NCCCCN(CC(=O)NC(C(=O)NC2C(=O)N3C2SC(C)(C)C3C(=O)[O-])c2ccccc2)C(=O)c2cccc(OC(C)=O)c2OC(C)=O)c1OC(C)=O.[Na+] (stereo not drawn) [HKI-9924154]
MIC in Fe(−)MHII Media ([1]; iron deficient media): 0.04 to 0.052 µg/mL
MIC in Fe(−)MHII Media ([2]; iron deficient media): 0.13 µg/mL
MIC in Fe(−)MHII Media ([3]; iron deficient media): 0.313 µg/mL
MIC [3, 31]: 0.34 µM
MIC ([3]; read-out: MIC): 0.34 µM
MIC in Fe(−)MHII Media ([4]; iron deficient media): <0.005 µg/mL
MIC in Fe(−)MHII Media ([5]; iron deficient media): <0.005 µg/mL
MIC in Fe(−)MHII Media [6]: >10 µg/mL
MIC in Fe(−)MHII Media [7]: >10 µg/mL
MIC in Fe(−)MHII Media [8]: >10 µg/mL
MIC in Fe(−)MHII Media [9]: >10 µg/mL

CC(=O)Oc1cccc(C(=O)NCCCCN(CC(=O)N[C@@H](C(=O)N[C@@H]2C(=O)N3C2SC(C)(C)[C@@H]3C(=O)O)c2ccccc2)C(=O)c2cccc(OC(C)=O)c2OC(C)=O)c1OC(C)=O (stereo partly drawn) [YML-I-18]
MIC ([1]; Table 5, read-out: MIC): 0.0156 to 0.0313 µM (≈ 0.0143 to 0.0287 µg/mL)
MIC [1, 31]: 0.0156 µM (≈ 0.0143 µg/mL)
MIC in Fe(−)MHII Media ([1]; iron deficient media, listed as HKI-9924116): (0.0156 μM
increase in antibiotic activity over ampicillin ([1]; several strains of P. aeruginosas (entries 1 and 2, Table 3)): 16000 fold
MIC [10]: 0.03 µM (≈ 0.0275 µg/mL)
MIC ([2]; Pseudomonas aeruginosa, read-out: MIC in Fe(−)MHII Media): 0.052 µg/mL (≈ 0.0566 µM)
MIC [11]: > 100 µM
MIC ([12]; Table 5): 0.4 to 0.75 µM (≈ 0.367 to 0.688 µg/mL)
MIC ([12]; clinical isolate from a cystic fibrosis patient): 0.4 to 0.75 µM (≈ 0.367 to 0.688 µg/mL)
MIC ([3]; Acinetobacter baumannii, ATCC17961, iron deficient media, read-out: MIC in Fe(−)MHII Media): 0.313 µg/mL
MIC ([3]; Acinetobacter baumannii, ATCC17961, text, read-out: MIC): 0.156 µg/mL to 0.313 µg/mL and 0.34 µM
MIC ([3]; iron deficient media, listed as HKI-9924116, read-out: MIC in Fe(−)MHII Media): 0.34 µM
MIC ([3]; iron deficient media, listed as YML-1-18, read-out: MIC in Fe(−)MHII Media): 0.156 µM
MIC ([4]; DC0, iron deficient media, read-out: MIC in Fe(−)MHII Media): < 0.005 µg/mL
MIC ([4]; representative strains of E. coli (entries 4-5, Table 3: DC0, DC2), read-out: MIC): < 0.005 µg/mL
MIC ([5]; Escherichia coli, read-out: MIC in Fe(−)MHII Media): < 0.005 µg/mL
MIC ([13]; Table 5, read-out: MIC): 0.0156 µM (≈ 0.0143 µg/mL)
MIC ([6]; Mycolicibacterium vaccae, IMET10760, read-out: MIC in Fe(−)MHII Media): > 10 µg/mL
MIC ([7]; Micrococcus luteus, ATCC10240, read-out: MIC in Fe(−)MHII Media): > 10 µg/mL
MIC ([8]; Bacillus subtilis, ATCC6633, read-out: MIC in Fe(−)MHII Media): > 10 µg/mL
MIC ([9]; Staphylococcus aureus, SG511, read-out: MIC in Fe(−)MHII Media): > 10 µg/mL
AD = agar diffusion inhibition zones [14]: (AD = 32) mm
AD = agar diffusion inhibition zones [15]: (AD = 40) mm
zones of inhibition (in words) [16]: impressive zones of inhibition; also recorded: potently active
zones of inhibition (in words) [17]: impressive zones of inhibition

O=C(O)c1cn(C2CC2)c2cc(N3CCNCC3)c(F)cc2c1=O [ciprofloxacin, reference compound]
MIC [3, 32]: 0.2 µM
MIC [18]: > 5 µM
MIC [19]: > 5 µM
MIC [20]: > 5 µM
MIC [21]: 0.2 µM (≈ 0.0663 µg/mL)
MIC [22]: > 5 µM
MIC ([4]; DC0, Table 2, printed E. coli DCO, read-out: in vitro activity (MIC)): 0.2 µM
MIC [13, 33]: 0.2 µM (≈ 0.0663 µg/mL)
Zone of Growth Inhibition [23]: 0 mm
Zone of Growth Inhibition [24]: 0 mm
Zone of Growth Inhibition [25]: 0 mm
Zone of Growth Inhibition [26]: 0 mm
Zone of Growth Inhibition [27]: 0 mm
antibacterial activity (in words) [28]: completely inactive

CCCCCCCCCC(=O)N[C@@H](Cc1c[nH]c2ccccc12)C(=O)N[C@H](CC(N)=O)C(=O)N[C@@H](CC(=O)O)C(=O)N[C@@H]1C(=O)NCC(=O)N[C@@H](CCCN)C(=O)N[C@@H](CC(=O)O)C(=O)N[C@H](C)C(=O)N[C@@H](CC(=O)O)C(=O)NCC(=O)N[C@H](CO)C(=O)N[C@@H]([C@H](C)CC(=O)O)C(=O)N[C@@H](CC(=O)c2ccccc2N)C(=O)O[C@@H]1C [daptomycin]
MIC [3, 32]: > 100 µM
MIC [18]: > 200 µM
MIC [19]: > 100 µM
MIC [20]: > 100 µM
MIC [21]: 0.8 µM (≈ 1.3 µg/mL)
MIC [22]: 0.8 µM (≈ 1.3 µg/mL)
MIC ([4]; DC0, read-out: in vitro activity (MIC)): > 100 µM
MIC [13, 33]: > 100 µM
zone of inhibition at 500 µM ([23]; Pseudomonas aeruginosa, PA6, read-out: Zone of Growth Inhibition): 0 mm
zone of inhibition at 500 µM ([24]; Acinetobacter baumannii, BAA1710, read-out: Zone of Growth Inhibition): 0 mm
zone of inhibition at 500 µM ([25]; Acinetobacter baumannii, BAA1793, read-out: Zone of Growth Inhibition): 0 mm
zone of inhibition at 500 µM ([26]; Acinetobacter baumannii, BAA1797, read-out: Zone of Growth Inhibition): 0 mm
zone of inhibition at 500 µM ([27]; Acinetobacter baumannii, BAA1800, read-out: Zone of Growth Inhibition): 0 mm
treated mice dead at Day 1 [29]: 5/5
antibacterial activity (in words) [28]: completely inactive
in vitro activity (in words) [30]: not active
